Test results: paper PMC8958504 (Journal of Medicinal Chemistry, 2022)

Tests used:
p65 = test: Western blotting of p65 in hippocampal slices exposed to OA; type: cell-based, mouse; conditions: hippocampal slices treated with OA
Description: As iNOS can be produced through the NF-κB (nuclear factor kappa-light-chain-enhancer of activated B cells) pathway, we analyzed the levels of p65, one of the components that form the NF-κB transcription factor family.[82] […] We also measured HO-1, an inducible enzyme transcribed by NRF2, known for its anti-inflammatory, antioxidant, and neuroprotective effects. […] NRF2 and NF-κB signaling pathways cooperate to maintain the physiological homeostasis of cellular redox status and to regulate the cellular response to stress and inflammation.[19],[83] […] This last mechanism could be related to our resveratrol-based MTDL 4e.
After acute treatment, the hippocampal slices were lysed in a cold AKT lysis buffer (137 mM NaCl, 20 mM NaF, 10% glycerol, 20 mM Tris–HCl, 1% Nonidet P-40, 1 μg/mL leupeptin, 1 mM phenylmethylsulfonylfluoride, 1 mM sodium pyrophosphate, and 1 mM Na3VO4, pH 7.5). The total protein in each sample was quantified using the Pierce BCA protein kit (Thermo Fisher). 20 μg of protein was resolved by sodium dodecyl sulfate polyacrylamide gel electrophoresis (SDS-PAGE) and transferred to Immobilon-P PVDF membranes (Millipore Corp.). […] The membranes were washed, incubated with ECL WB Kit (GE Healthcare, Amersham), and exposed using a ChemiDoc MP system (Bio-Rad Laboratories) for the visualization of the specific bands, which were then analyzed with Fiji software.

[1] = Oxygen radical absorbance capacity (ORAC-FL) assay; conditions: trolox = 1.0

In the case of `C#CCn1nc(/C=C/c2ccc(OC)cc2)oc1=O` [4e, 5-[(E)-2-(4-Methoxyphenyl)ethenyl]-3-(prop-2-yn-1-yl)-1,3,4-oxadiazol-2(3H)-one], the p65 level (p65) is reported as “slightly reduced p65 below to the basal value” and the “ORAC (trolox equiv)” value [1] is reported as under 0.1 trolox equiv.
